Like-named read-outs stand apart in the source and are kept apart here.
Legend:
Format in all cases: cell-based
human FXR = molecular target: T1, human FXR (Homo sapiens, UniProt Q96RI1); assay: HG5LN GAL4-FXR reporter cell line, agonist mode (luciferase transactivation); details: NE = No effect; for EC50: HG5LN GAL4-FXR cells, tested alone
T1 construct: FXR (R193-Q486); expressed in transfected cells; host or cells: HG5LN (HeLa cells carrying the (GAL4RE)5-βGlob-Luc-SVNeo reporter)
T1 sequence (Q96RI1 193-486): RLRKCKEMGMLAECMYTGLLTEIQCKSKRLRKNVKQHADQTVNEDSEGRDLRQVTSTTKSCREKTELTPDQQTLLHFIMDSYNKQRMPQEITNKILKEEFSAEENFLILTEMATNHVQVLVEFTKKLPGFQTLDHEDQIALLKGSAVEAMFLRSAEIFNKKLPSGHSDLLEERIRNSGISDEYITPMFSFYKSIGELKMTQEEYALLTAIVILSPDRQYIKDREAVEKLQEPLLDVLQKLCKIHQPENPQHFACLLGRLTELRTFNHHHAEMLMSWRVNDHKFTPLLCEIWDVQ
Text: (§1) To construct GAL4-NR chimeras, individual LBDs of human FXR (R193-Q486), LXRα (A187-E447), LXRβ (G199-E461), CAR (M76-S348), and RORγ (S97-K518) were amplified by PCR with primers containing XhoI and SacI restriction sites (FXR), XhoI and BamHI (LXRs, CAR, RORγ) and inserted in pSG5-GAL4(DBD)-puromycin plasmid. To construct GAL4-CAR (+ APYLT) (M76-S353), the five amino acids APYLT were inserted by overlap extension PCR between amino acids P270 and D271 of CAR.
(§2) To characterize the specificity of chemicals for human FXR, LXRα, LXRβ, CAR and RORγ, we established in a similar manner HG5LN FXR, LXRα, LXRβ, CAR WT, CAR (APYLT) and RORγ reporter cell lines. […] These cells were stably transfected by pSG5-GAL4 (DBD)-NRs (LBD)-puromycin plasmid and selected in presence of 0.5 µg/ml puromycin. […] From each HG5LN NR cells, 5 to 10 clones were chosen for their ligand inducibility of luciferase expression. […] The most inducible clones were expanded and rechecked for inducibility and aliquots were frozen at different passages. One clone per receptor was maintained in culture and used for ligand screening. HG5LN cells were cultured in Dulbecco’s modified Eagle’s medium (DMEM): Nutrient Mixture F-12 (DMEM/F-12) containing phenol red and 1 g/l glucose and supplemented with 5% fetal bovine serum, 100 units/ml of penicillin, 100 µg/ml of streptomycin and 1 mg/ml geneticin, in 5% CO2 humidified atmosphere at 37°C. Stably transfected cell lines derived from HG5LN cells were cultured in the same culture medium supplemented with 0.5 µg/ml puromycin.
(§3) Individual reporter cell lines were seeded at a density of 40,000 cells per well in 96-well white opaque tissue culture plates (Greiner CellStar) in Dulbecco’s Modified Eagle Medium: Nutrient Mixture F-12 (DMEM/F-12) without phenol red and 1 g/l glucose and supplemented with 5% stripped fetal bovine serum, 100 units/ml of penicillin, 100 µg/ml of streptomycin (test medium). Chemicals to be tested were added 24h later, and cells were incubated at 37°C for 16h. Experiments were performed in quadruplicates. At the end of the incubation period, culture medium was replaced with test medium containing 0.3 mM luciferin solution. Luciferase activity was measured for 2s in intact living cells after 10 min stabilization using a Micro Beta Wallac luminometer (PerkinElmer). EC50 values were calculated using GraphPad Prism (GraphPad Software Inc).
(§4) Chemicals tested for agonism on FXR, LXRs, CAR (+ APYLT), PXR, and antagonism on CAR and RORγ were tested alone, without addition of any other ligand.
(§5) In the transactivation assay, each compound was tested at various concentrations in three independent experiments at least. For each experiment, tests were performed in quadruplicates for each concentration, and data are expressed by means values with standard deviations. Individual agonist dose–response curves, in the absence and presence of antagonist, were fitted using the sigmoid dose-response function of a graphics and statistics software program (GraphPad Prism, version 5.0). EC50 (effective concentration for half-maximal luciferase activity) and IC50 (half-maximal inhibitory concentration) values were calculated from equations used to fit the data in this graphic software. Transactivation data are presented as EC50 and IC50 values for each compound tested. To analyze significances, we compared individual compound treatments with controls using one-way analysis of variance (ANOVA) with the help of GraphPad Prism software.

human LXRβ [1] = molecular target: T2, human LXRβ (Homo sapiens, UniProt P55055); assay: HG5LN GAL4-LXRβ reporter cell line, agonist mode; details: for LXRβ % max act: maximal luciferase activity at 10^-5 M (10^-6 M for * and 3 10^-6 M for ** compounds), 100% = 1 µM T0901317, DMSO 9 ± 2
T2 construct: LXRβ (G199-E461); expressed in transfected cells; host or cells: HG5LN (HeLa cells carrying the (GAL4RE)5-βGlob-Luc-SVNeo reporter)
T2 sequence (P55055 198-460 limits assumed): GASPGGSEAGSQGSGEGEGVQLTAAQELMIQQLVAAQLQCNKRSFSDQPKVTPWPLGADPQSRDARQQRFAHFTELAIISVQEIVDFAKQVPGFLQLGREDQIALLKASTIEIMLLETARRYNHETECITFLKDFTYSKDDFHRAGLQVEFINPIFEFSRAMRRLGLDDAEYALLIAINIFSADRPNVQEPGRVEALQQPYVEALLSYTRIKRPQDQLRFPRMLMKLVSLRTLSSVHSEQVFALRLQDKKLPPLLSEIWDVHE
Text: as §1, §2, §3, §4, §5

human CAR (+ APYLT) = molecular target: T3, human CAR (+ APYLT) (Homo sapiens, UniProt Q14994, INS270APYLT); assay: HG5LN GAL4-CAR (+APYLT) reporter cell line, agonist mode; details: for EC50: HG5LN CAR + APYLT cells, tested alone, NE = No effect
T3 construct: CAR (M76-S348); expressed in transfected cells; host or cells: HG5LN (HeLa cells carrying the (GAL4RE)5-βGlob-Luc-SVNeo reporter)
T3 sequence (Q14994 47-324 isoform Q14994-6): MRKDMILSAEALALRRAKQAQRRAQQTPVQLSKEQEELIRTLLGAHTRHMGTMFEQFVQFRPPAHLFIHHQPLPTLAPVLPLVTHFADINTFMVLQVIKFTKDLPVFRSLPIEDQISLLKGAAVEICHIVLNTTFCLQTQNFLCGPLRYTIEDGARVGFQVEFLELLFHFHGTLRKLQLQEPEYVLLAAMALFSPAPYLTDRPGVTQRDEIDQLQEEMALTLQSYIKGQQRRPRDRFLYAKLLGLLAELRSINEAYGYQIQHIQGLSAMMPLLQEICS
Text: as §1, §2, §3, §4, §5

human LXRβ [2] = molecular target: T2, human LXRβ; assay: HG5LN GAL4-LXRβ reporter cell line, antagonist mode in presence of T0901317; details: for LXRβ (T0901317 100 nM) % min act: in presence of T0901317 100 nM (80% of maximal activity), at 10^-5 M (10^-6 M *, 3 10^-6 M **)
Text: as §1, §2, §3, §4, §5

[3] = HG5LN GAL4-LXRβ cells, tested alone, NE = No effect, read-out: LXRβ EC50
[4] = read-out: LXRβ (T0901317 100 nM) IC50, in presence of T0901317 100 nM, NE = No effect

Row | Molecule | EC50 (human FXR) | EC50 (human LXRβ [1]; [3]) | EC50 (human CAR (+ APYLT)) | IC50 (human LXRβ [2]; [4]) | further results
1 | CCOC(=O)Nc1ccc2c(c1)N(C(=O)CN(CC)CC)c1ccccc1CC2 [CINPA1] | > 10 µM | > 10 µM | > 10 µM | > 10 µM | –
2 | Clc1ccc(-c2nc3sccn3c2/C=N/OCc2ccc(Cl)c(Cl)c2)cc1 [CITCO] | > 10 µM | > 10 µM | – | > 10 µM | –
3 | Clc1ccccc1C(c1ccccc1)(c1ccccc1)n1ccnc1 [Clotrimazole, clotrimazole] | – | > 10 µM | – | > 10 µM | Emax at 10 µM (human CAR (+ APYLT); HG5LN, read-out: CAR (APYLT) % max act): 23%
4 | COc1cccc(Cn2cc(C(=O)Nc3ccc(C)c(S(=O)(=O)N4CCOCC4)c3)c(-c3ccc(C)cc3)n2)c1 [DY268] | – | > 10 µM | > 10 µM | > 10 µM | –
5 | CC(C)(C)c1nc(-c2cccc(NS(=O)(=O)c3c(F)cccc3F)c2F)c(-c2ccnc(N)n2)s1 [Dabrafenib] | > 10 µM | > 10 µM | > 10 µM | > 10 µM | –
6 | COC(=O)/C=C/c1cccc(N(Cc2ccc(-c3ccc(N(C)C)cc3)cc2)C(=O)C2CCCCC2)c1 [Feraxamine] | 0.612 ± 0.188 µM | > 10 µM | > 10 µM | > 10 µM | FXR % max act (human FXR; maximal luciferase activity at 10^-5 M (10^-6 M for * and 3 10^-6 M for ** compounds), 100% = 1 µM GW4064, DMSO 6 ± 1): 33%
7 | Cc1cc(C)c(S(=O)(=O)N(Cc2ccc(-c3cccc(S(C)(=O)=O)c3)cc2)Cc2ccc(C(F)(F)F)o2)c(C)c1 [GSK2033] | > 10 µM | – | > 10 µM | – | IC50 (human LXRβ [2]): 0.01 ± 0.003 µM; LXRβ (T0901317 100 nM) % min act (human LXRβ [2]; NE = No effect): 2%
8 | O=C(O)Cc1cccc(OCCCN(Cc2cccc(C(F)(F)F)c2Cl)CC(c2ccccc2)c2ccccc2)c1 [GW3965] | – | 0.015 ± 0.006 µM | > 10 µM | – | LXRβ specificity (fold, over LXRα) (human LXRβ [1]; from EC50 values on LXRα and LXRβ): 12 fold; LXRβ % max act (human LXRβ [1]; NE = No effect): 100%
9 | CC(C)c1onc(-c2c(Cl)cccc2Cl)c1COc1ccc(/C=C/c2cccc(C(=O)O)c2)c(Cl)c1 [GW4064] | – | > 10 µM | > 10 µM | > 10 µM | –
10 | Cc1oc2ccccc2c1CNC(=O)NCc1cccs1 [S07662] | > 10 µM | > 10 µM | > 10 µM | > 10 µM | –
11 | O=C(Nc1ccc(C(O)(C(F)(F)F)C(F)(F)F)cc1)c1ccccc1Cl [SR0987] | > 10 µM | > 10 µM | > 10 µM | > 10 µM | –
12 | CC(=O)Nc1nc(C)c(S(=O)(=O)Nc2ccc(C(O)(C(F)(F)F)C(F)(F)F)cc2)s1 [SR1001] | > 10 µM | > 10 µM | > 10 µM | > 10 µM | –
13 | O=C(Nc1ccc(C(O)(C(F)(F)F)C(F)(F)F)cc1)c1ccc(C(F)(F)F)cc1 [SR1078] | > 10 µM | > 10 µM | > 10 µM | > 10 µM | –
14 | CCOC(=O)c1ccc(CN(Cc2ccc(-c3cccc(S(C)(=O)=O)c3)cc2)S(=O)(=O)c2c(C)cc(C)cc2C)o1 [SR9238] | > 10 µM | – | > 10 µM | – | IC50 (human LXRβ [2]): 0.005 ± 0.001 µM; LXR β-subtype specificity (fold, over α subtype) (human LXRβ [2]; from IC50 values on LXRα and LXRβ): 5 fold; LXRβ (T0901317 100 nM) % min act (human LXRβ [2]; NE = No effect): 1%
15 | Cc1cc(C)c(S(=O)(=O)N(CCc2cccc(Br)c2)Cc2ccc(-c3cccc(S(C)(=O)=O)c3)cc2)c(C)c1 [SR9243] | > 10 µM | – | > 10 µM | – | IC50 (human LXRβ [2]): 0.059 ± 0.013 µM; LXRβ (T0901317 100 nM) % min act (human LXRβ [2]; NE = No effect): 2%
16 | CCOP(=O)(OCC)C(=Cc1cc(C(C)(C)C)c(O)c(C(C)(C)C)c1)P(=O)(OCC)OCC [SR12813] | > 10 µM | > 10 µM | > 10 µM | > 10 µM | –
17 | Fc1ccc(-c2c3cccc(C(F)(F)F)c3nn2Cc2ccc(F)cc2Cl)cc1 [WAY252623] | > 10 µM | – | > 10 µM | – | EC50 (human LXRβ [1]): 0.321 ± 0.071 µM; LXRβ % max act (human LXRβ [1]; NE = No effect): 72%
18 | SPA70 | > 10 µM | > 10 µM | > 10 µM | > 10 µM | –
